2 molecules from patent publication US20140363845A1, “CHOLESTEROL-BASED MEDIA SUPPLEMENTS FOR CELL CULTURE” (Biogen Idec MA Inc., priority 2011, published 2014) can be followed below.

In data set [1] the test system is NS0 cells. The following applies: ethanol dose study.
Protocol: Cells were suspended in fresh medium containing increased amount of GCLC at concentrations of 5 mg/L and 7.5 mg/L and then incubated for 3 days in 2 L bags under standard cell culture conditions.
In data set [2] the test system is NS0 cells. The data set is described as follows: cholesterol dosing in high cell density pseudo-perfusion shake flask culture. The conditions noted are these: seed density 8×10^6 cells/ml. The data set is classed as cell-based, murine. The method, then:
FIG. 5A and FIG. 5B are graphs of a cholesterol dosing study in high cell density cell culture generated using pseudo-perfusion mode. […] Pseudo-perfusion cultures were established in shake flasks using growth medium supplement with GCLC at the following concentrations: 2.5 mg/L (▪), 7.5 mg/L (▴), 10.0 mg/L (0) to 12.5 mg/L (∘). Full volume medium exchanges were carried out on a daily basis. […] There was full volume exchange of medium in the shake flasks on a daily basis. The initial seed density was 8×10^6 cells/ml, and one volume of fresh growth medium was exchanged daily starting on day 1 post inoculation.

The test system of data set [3] is NS0 cells. Kind of data set: shake flask cell growth in medium held in WAVE Bioreactor bag. On the set-up: species or system murine. The conditions noted are these: based on medium hold study and shake flask growth and viability data. The method, then:
(§1) The rate of cholesterol depletion from the culture medium in single-use disposable bioreactor bags was determined. A medium hold study was performed in which 1.4 L of fresh pre-warmed culture medium containing 2.5 mg/L cholesterol (1 ml GCLC/liter medium) was added into a 2 L WAVE BIOREACTOR™ bag. The bag was then incubated under standard culture conditions, and 200 ml medium aliquots were aseptically removed from the bag at 15 min, 4 h, 7.5 h and 22 h incubation times. The medium aliquots at each time point were analyzed for cholesterol concentration (FIG. 1) and used to inoculate shake flask cultures seeded at 4×10^5 cells/ml. Shake-flask cultures were passaged for three days under standard conditions. A shake-flask control culture (no prior exposure to WAVE Bioreactor™ bag) containing 2.5 mg/L cholesterol (1 ml GCLC per liter medium) was seeded in parallel. Viable cell density and viability were measured every 24 hours (FIG. 2).
A cholesterol-dependent NS0 cell line expressing recombinant antibody was used in the study. The culture medium used was a chemically defined medium formulation. […]
(§2) Viable cell density was determined using a Cedex Automated Cell Culture Analyzer (Roche Innovatis AG). pH and pCO2 were measured off-line using a BioProfile pHOx analyzer (Nova Biomedical). Cholesterol concentration was measured using GC analysis by Invitrogen Medium Analytical Services.

A short description of data set [4]: medium hold study: cholesterol adsorption in disposable WAVE Bioreactor bag. The data set is classed as physicochemical. The following applies: medium with 2.5 mg/L cholesterol (1 ml GCLC/liter), after 22 hours of incubation in 2 L WAVE Bioreactor bag. The method, then:
as §1, §2

Regarding `CCO` [ethanol], the “ethanol concentration at which cell growth was not inhibited” value in data set [1] is recorded as “below 2%”.
Consider `CC(C)CCC[C@@H](C)[C@H]1CC[C@H]2[C@@H]3CC=C4C[C@@H](O)CC[C@]4(C)[C@H]3CC[C@]12C` [cholesterol], for which the “support of cell growth” value in data set [2] (2.5 mg total cholesterol/L, daily full volume medium exchange) is recorded as “insufficient to support growth”. Also, the “cholesterol concentration required to support growth” value in data set [2] (high cell density pseudo-perfusion culture) is recorded as greater than 7.5 mg/L. Also, in data set [3], the “cholesterol concentration in the medium to be maintained to support cell growth” value was “above 1.0 mg/L”. Further, the “cholesterol concentration in the medium” value in data set [4] was “below detectable limits”.
